How the values were obtained:
fibroblasts = experiment: MTT assay, cell proliferation of fibroblasts; format: cell-based
Method: MTT assay [3-(4,5-dimethylthiazol-2-yl)-2,5-diphenyltetrazolium bromide reduction method] was performed on fibroblasts to evaluate cell proliferation of the panduratin derivatives prepared in Examples 2 through 4. Epigallocatechin-3-O-gallate (EGCG), which is known to have skin wrinkle improvement effect, was selected as control substance.

MMP-1 = MMP-1 expression in fibroblasts by Western blotting and RT-PCR; format: cell-based; settings: for expression of MMP-1 mRNAs: RT-PCR; for expression of MMP-1 proteins: Western blotting; for MMP-1 inhibition and procollagen promotion activity compared with the control substance EGCG: Western blotting and RT-PCR, covers MMP-1 and procollagen
Method: (§1) MMP-1 inhibition activity and procollagen synthesis promotion effect of the Kaempferia pandurata ethanol extract prepared in Example 1 were measured by Western blotting and reverse transcriptase-polymerase chain reaction (RT-PCR).
(§2) Specifically, proteins were extracted from cultured fibroblasts and quantitated using a protein assay reagent (Bio-Rad Laboratories Inc., Hercules, Calif., USA). For Western blotting, the proteins were heated for 3 minutes and, after cooling, transferred to a nitrocellulose membrane (Amersham International, Little Chalfont, England) through electrophoresis in 10% SDS-PAGE. The membrane was saturated with 5% skim milk in TBST (10 mM Tris, pH 7.5, 100 mM NaCl, 0.1% Tween 20). After blotting for 2 hours using primary antibodies (diluted to 1:1000), followed by washing with TBST, blotting was performed for 2 hours using secondary antibodies (diluted to 1:2000). After washing with TBST for 3 times, the blotted antibodies were analyzed using an ECL detection system (Amersham International, Little Chalfont, England).
(§3) For RT-PCR, RNAs were isolated from fibroblasts using TRIZOL (Invitrogen, USA). The isolated RNAs were quantitated using MMP-1 and procollagen primers and Taq polymerase. Specifically, RT-PCR was carried out using MMP-1 primer for 25 cycles, each cycle consisting of 30 seconds at 94° C., 1 minute at 50° C. and 1 minute at 72° C. And RT-PCR was carried out using procollagen primer for 28 cycles, each cycle consisting of 30 seconds at 94° C., 1 minute at 60° C. and 1 minute at 72° C. Then, after electrophoresis using 1% agarose gel, expression of mRNA for MMP-1 and procollagen was analyzed through ethidium bromide (EtBr) illumination.
(§4) MMP-1 inhibition activity and procollagen synthesis promotion effect of the panduratin derivatives prepared in Examples 2 through 4 were measured by Western blotting and RT-PCR in the same manner as Test Example 2-1.

procollagen = experiment: Procollagen synthesis in fibroblasts by Western blotting and RT-PCR; format: cell-based; settings: for expression of procollagen mRNAs: RT-PCR; for expression of procollagen proteins: Western blotting
Method: as §1, §2, §3, §4

[1] = test system: extracellular-regulated protein kinase (ERK); experiment: UV-induced activation (phosphorylation) of ERK in fibroblasts, Western blotting; format: cell-based, Human; settings: CCD-986sk fibroblasts, UV 20 mJ/cm^2, 24 h pretreatment
Method: (§5) Human skin fibroblasts (CCD-986sk, ATCC, Manassas, Va., USA) were cultured in DMEM (Gibco, Grand Island, N.Y., USA). The fibroblasts were cultured on a 10 cm Petri dish (SPL, Seoul, Korea) to a concentration of 80% and further cultured for 24 hours in serum-free culture medium. Then, the cells were cultured for 24 hours in serum-free DMEM containing the panduratin A of Example 2. After replacing the culture medium with 5 mL of phosphate-buffered saline (PBS), the cells were exposed to UV (20 mJ/cm^2). Cells that were not exposed to UV were used as negative control group, and cells treated with EGCG were used as positive control group.
(§6) The fibroblasts were lysed in RIPA buffer (Sigma-Aldrich Co., St. Louis, Mo., USA) and proteins were quantitated using a protein assay reagent (Bio-Rad Laboratories Inc., Hercules, Calif., USA). […] After washing with TBST for 3 times, the blotted antibodies were analyzed using an ECL detection system (Amersham International, Little Chalfont, England). The detection level was measured using the software RFLPscan version 2.1.
(§7) Through this procedure, the change of activity of extracellular-regulated protein kinase (ERK), Jun-N-terminal kinase (JNK) and p38 kinase, which belong to the MAPKs, was measured.

[2] = test system: Jun-N-terminal kinase (JNK); experiment: UV-induced activation (phosphorylation) of JNK in fibroblasts, Western blotting; format: cell-based, Human; settings: CCD-986sk fibroblasts, UV 20 mJ/cm^2, 24 h pretreatment
Method: as §5, §6, §7

p38 kinase = experiment: UV-induced activation (phosphorylation) of p38 kinase in fibroblasts, Western blotting; format: cell-based, Human; settings: CCD-986sk fibroblasts, UV 20 mJ/cm^2, 24 h pretreatment
Method: as §5, §6, §7

AP-1 = experiment: Electrophoretic mobility shift assay (EMSA), DNA binding activity of AP-1; format: cell-based, Human; settings: nuclear proteins of UV-exposed fibroblasts
Method: as §5
Electrophoretic mobility shift assay (EMSA) was performed to measure the DNA binding activity of AP-1. Specifically, the fibroblasts, which were cultured in Test Example 3-1, to which panduratin A was added and which were exposed to UV, were washed with PBS and collected. […] Gel shift assay was carried out using quantitated nuclear proteins according to the manufacturer's instructions (Gel Shift Kit System; Panomics, Fremont, Calif., USA). Then, the detected proteins were analyzed with an ECL detection system (Amersham International, Little Chalfont, England) and the detection level was measured using the software RFLPscan version 2.1.
DNA binding activity of AP-1 was determined through this procedure.

c-Jun = c-Jun activity in UV-exposed fibroblasts, Western blotting; format: cell-based, Human
Method: as §5
(§8) The fibroblasts were lysed in RIPA buffer (Sigma-Aldrich Co., St. Louis, Mo., USA) and proteins were quantitated using a protein assay reagent (Bio-Rad Laboratories Inc., Hercules, Calif., USA). For Western blotting, the proteins were heated for 3 minutes and, after cooling, transferred to a nitrocellulose membrane (Amersham International, Little Chalfont, England) through electrophoresis in 10% SDS-PAGE. The membrane was saturated with 5% skim milk in TBST (10 mM Tris, pH 7.5, 100 mM NaCl, 0.1% Tween 20). […] After washing with TBST for 3 times, the blotted antibodies were analyzed using an ECL detection system (Amersham International, Little Chalfont, England). The detection level was measured using the software RFLPscan version 2.1. […]

c-Fos = c-Fos activity in UV-exposed fibroblasts, Western blotting; format: cell-based, Human
Method: as §5, §8

[3] = test system: hairless mice (Hos: HR-1); experiment: Wrinkle improvement in UV-exposed hairless mice, application on skin; format: in vivo
Method: Forty eight 6-week-old female hairless mice (Hos: HR-1) were accustomed for a week and randomly divided into 6 groups, 8 per each. The hairless mice (Hos:HR-1) were exposed to UV for 8 weeks. UV irradiation was carried out 3 times a week, from 1 MED (1 MED=50 mJ/cm^2) to 4 MED, until the end of the test. The 6 test groups were: non UV-treated group, UV-treated group, UV- and Kaempferia pandurata ethanol extract (0.1%, 0.5%)-treated group, and UV- and panduratin A (1 mM, 5 mM)-treated group. Each sample was dissolved in a mixture solvent of ethanol and polyethylene glycol (7:3, v/v) and 50 μL was applied on the back of the mice every day for 8 weeks. For the non UV-treated group and the UV-treated group, 50 μL of a mixture of ethanol and polyethylene glycol (7:3, v/v) was applied.
In order to investigate wrinkle prevention effect, skin replicas were taken using silicone polymer (SILFLO Impression Material, Flexico, England). The image files of the skin replicas were subjected to wrinkle evaluation using the computer image analysis software Skin Visiometer SV 600 (Courage+Khazaha Electronic, Kln, Germany) Rt, Rm, Rz and Ra values (Rt: the distance from the highest and lowest portions on the skin surface, Rm: the maximum Rt value of 5 measurements, Rz: the mean Rt value of 5 measurements, Ra: the arithmetic mean surface roughness) were determined.

[4] = application on skin, 8 weeks, p<0.05

Row | Compound | Proliferation effect (%) (fibroblasts; 0.001 μM) | Proliferation effect (%) (fibroblasts; 0.01 μM) | Proliferation effect (%) (fibroblasts; 0.1 μM) | Proliferation effect (%) (fibroblasts; 1 μM) | Proliferation effect (%) (fibroblasts; 10 μM) | Proliferation effect (%) (fibroblasts; 50 μM) | expression of MMP-1 mRNAs (MMP-1) | expression of MMP-1 proteins (MMP-1) | MMP-1 inhibition and procollagen promotion activity compared with the control substance EGCG (MMP-1) | expression of procollagen mRNAs (procollagen) | expression of procollagen proteins (procollagen) | also measured
1 | CC(C)=CC[C@@H]1C(C)=CC[C@@H](c2ccccc2)[C@@H]1C(=O)c1c(O)cc(O)cc1O [4-Hydroxypanduratin A, 4-hydroxypanduratin A] | 101% | 102% | 109% | 119% | 121% | 128% | decrease of MMP-1 proteins and mRNAs in a concentration-dependent manner | decrease of MMP-1 proteins and mRNAs in a concentration-dependent manner | better activity than the control substance EGCG | increased in a concentration-dependent manner | increased in a concentration-dependent manner | –
2 | COc1cc(O)cc(O)c1C(=O)[C@@H]1[C@H](CC=C(C)C)C(C)=CC[C@H]1c1ccccc1 [Isopanduratin A, isopanduratin A] | 102% | 102% | 110% | 120% | 124% | 130% | decrease of MMP-1 proteins and mRNAs in a concentration-dependent manner | decrease of MMP-1 proteins and mRNAs in a concentration-dependent manner | better activity than the control substance EGCG | increased in a concentration-dependent manner | increased in a concentration-dependent manner | –
3 | COc1cc(O)c(C(=O)[C@@H]2[C@H](CC=C(C)C)C(C)=CC[C@H]2c2ccccc2)c(O)c1 [Panduratin A, panduratin A] | 103% | 104% | 111% | 120% | 126% | 131% | decrease of MMP-1 proteins and mRNAs in a concentration-dependent manner | decrease of MMP-1 proteins and mRNAs in a concentration-dependent manner | better activity than the control substance EGCG | increased in a concentration-dependent manner | increased in a concentration-dependent manner | activation of ERK [1]: suppressed in a concentration-dependent manner; activation of JNK [2]: suppressed in a concentration-dependent manner; activation of p38 kinase (p38 kinase): suppressed in a concentration-dependent manner; binding of AP-1 to DNA (AP-1): inhibited binding of AP-1 to DNA in a concentration-dependent manner; c-Jun activity (c-Jun): inhibited c-Jun and c-Fos activity in a concentration-dependent manner; c-Fos activity (c-Fos): inhibited c-Jun and c-Fos activity in a concentration-dependent manner; wrinkling (skin replicas) as compared to the UV-treated group ([3]; 50 μL on the back daily for 8 weeks, extract 0.1% and 0.5%, panduratin A 1 mM and 5 mM): remarkably decreased wrinkling; Ra value (arithmetic mean surface roughness) [3, 4]: significantly decreased; Rm value (maximum Rt value of 5 measurements) [3, 4]: significantly decreased; Rt value (distance from the highest and lowest portions on the skin surface) [3, 4]: significantly decreased; Rz value (mean Rt value of 5 measurements) [3, 4]: significantly decreased
4 | Epigallocatechin-3-O-gallate [EGCG, reference compound] | 102% | 104% | 107% | 119% | 120% | 126% | – | – | – | – | – | –

Reference: US20160271028A1, “NOVEL USE OF PANDURATIN DERIVATIVES OR EXTRACT OF KAEMPFERIA PANDURATA COMPRISING THE SAME” (Newtree Co., Ltd., priority 2007, published 2016)
